Assay results from US10881699B2, “Cosmetic compositions” (Mary Kay Inc., priority 2014, dated 2021).

Experiments:
[1] = tested on: procollagen peptide production by human epidermal fibroblasts; experiment: Collagen stimulation assay, procollagen peptide ELISA; format: cell-based; details: treated for 3 days
Source text: Collagen Stimulation Assay:
Collagen is an extracellular matrix protein critical for skin structure. Increased synthesis of collagen helps improve skin firmness and elasticity. This bioassay can be used to examine the effect of any one of the active ingredients, combination of ingredients, or compositions having said combinations disclosed in the specification on the production of procollagen peptide (a precursor to collagen) by human epidermal fibroblasts. The endpoint of this assay is a spectrophotometric measurement that reflects the presence of procollagen peptide and cellular viability. The assay employs the quantitative sandwich enzyme immunoassay technique whereby a monoclonal antibody specific for procollagen peptide was been pre-coated onto a microplate. […] Following a wash to remove any unbound antibody-enzyme reagent, a substrate solution was added to the wells and color develops in proportion to the amount of procollagen peptide bound in the initial step using a microplate reader for detection at 450 nm. The color development was stopped and the intensity of the color was measured. […] Following incubation, cell culture medium was collected and the amount of procollagen peptide secretion quantified using a sandwich enzyme linked immuno-sorbant assay (ELISA) from Takara (#MK101).

MMP3 = biological target: T1, MMP3 (Homo sapiens, UniProt P08254); experiment: Matrix metalloproteinase enzyme activity assay, MMP3; format: biochemical; details: thiopeptide chromogenic substrate
T1 construct: purchased BioMol International AK-400
Source text: (§1) Matrix Metalloproteinase Enzyme Activity (MMP3; MMP9) Assay: An in vitro matrix metalloprotease (MMP) inhibition assay. MMPs are extracellular proteases that play a role in many normal and disease states by virtue of their broad substrate specificity. MMP3 substrates include collagens, fibronectins, and laminin; while MMP9 substrates include collagen VII, fibronectins and laminin. Using Colorimetric Drug Discovery kits from BioMol International for MMP3 (AK-400) and MMP-9 (AK-410), this assay is designed to measure protease activity of MMPs using a thiopeptide as a chromogenic substrate (Ac-PLG42-mercapto-4-methyl-pentanoylRG-OC2H5)5,6. The MMP cleavage site peptide bond is replaced by a thioester bond in the thiopeptide. Hydrolysis of this bond by an MMP produces a sulfhydryl group, which reacts with DTNB [5,5′-dithiobis(2-nitrobenzoic acid), Ellman's reagent] to form 2-nitro-5-thiobenzoic acid, which can be detected by its absorbance at 412 nm (c=13,600 M-1 cm-1 at pH 6.0 and above 7). The active ingredients, any one of the combination of ingredients, or compositions having said combinations disclosed in the specification can be assayed.

MMP9 = biological target: T2, MMP9 (Homo sapiens, UniProt P14780); experiment: Matrix metalloproteinase enzyme activity assay, MMP9; format: biochemical; details: thiopeptide chromogenic substrate
T2 construct: purchased BioMol International AK-410
Source text: as §1

T1 sequence (P08254 100-272 limits assumed): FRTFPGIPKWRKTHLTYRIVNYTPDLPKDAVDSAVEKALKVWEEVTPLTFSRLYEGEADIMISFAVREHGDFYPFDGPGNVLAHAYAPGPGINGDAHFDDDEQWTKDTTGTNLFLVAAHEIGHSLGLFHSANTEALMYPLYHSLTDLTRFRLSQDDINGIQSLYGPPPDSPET
T2 sequence (P14780 107-444 limits assumed): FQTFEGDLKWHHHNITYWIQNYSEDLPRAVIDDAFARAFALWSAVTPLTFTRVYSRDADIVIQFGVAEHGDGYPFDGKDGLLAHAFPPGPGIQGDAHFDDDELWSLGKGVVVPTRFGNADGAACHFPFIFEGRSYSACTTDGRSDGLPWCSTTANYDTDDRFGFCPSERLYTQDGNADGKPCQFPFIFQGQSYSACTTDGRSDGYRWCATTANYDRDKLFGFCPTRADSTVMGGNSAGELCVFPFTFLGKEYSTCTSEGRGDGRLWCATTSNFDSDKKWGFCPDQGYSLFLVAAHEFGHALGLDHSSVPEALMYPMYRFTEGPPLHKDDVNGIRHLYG

| % MMP3 Activity (MMP3) [%] | % MMP9 Activity (MMP9) [%] | Compound | % Increase of Type I Collagen Production [1] [%] |
| --- | --- | --- | --- |
| – | – | Trifluoroacetyl tripeptide-2 | 23 |
| 38 | 11 | CCCCCCCCC(CCCCCC)C(=O)OC[C@H](OC(=O)C(CCCCCC)CCCCCCCC)[C@H]1OC(=O)C(OC(=O)C(CCCCCC)CCCCCCCC)=C1OC(=O)C(CCCCCC)CCCCCCCC (stereo partly shown) [Tetrahexyldecyl ascorbate] | 50 |
